Counter-ions that a name gives are not always drawn.

IC50 data for 29 compounds are collected here from patent US20070004660A1, “Synergistic Modulation of Flt3 Kinase Using Alkylquinolines and Alkylquinazolines” (priority 2005, published 2007).

The assay addresses T1, isolated kinase domain of the human FLT3 receptor (a.a. 571-993) (Homo sapiens, UniProt P36888).
T1 construct: human FLT3 receptor (a.a. 571-993)
T1 sequence (P36888 571-993): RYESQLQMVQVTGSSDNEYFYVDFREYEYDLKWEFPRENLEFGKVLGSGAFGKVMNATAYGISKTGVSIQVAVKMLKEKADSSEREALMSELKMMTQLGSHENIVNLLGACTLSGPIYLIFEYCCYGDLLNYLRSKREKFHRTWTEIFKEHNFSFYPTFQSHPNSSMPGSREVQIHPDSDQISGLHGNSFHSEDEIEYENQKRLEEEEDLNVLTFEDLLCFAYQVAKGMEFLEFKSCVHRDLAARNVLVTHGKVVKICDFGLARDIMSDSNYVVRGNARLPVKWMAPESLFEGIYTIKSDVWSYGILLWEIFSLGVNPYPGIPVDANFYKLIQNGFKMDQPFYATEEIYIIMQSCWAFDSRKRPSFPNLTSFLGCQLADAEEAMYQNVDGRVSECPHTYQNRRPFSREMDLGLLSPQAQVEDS
The experiment in a line: FLT3 fluorescence polarization kinase assay. The format is biochemical. Particulars: 150 uM ATP; uncertainty ±10%. Background: In fluorescence polarisation assays a small probe gives low polarisation when free and higher when bound to something large.
In general, IC50 refers to the concentration that inhibits the measured activity by half. Read a low IC50 as greater potency. Compound `CN1CCN(CCCOc2cc3ncnc(C4CCN(C(=O)Nc5ccc(N6CCOCC6)cc5)CC4)c3cc2F)CC1` [Compound 205, 4-{6-Fluoro-7-[3-(4-methyl-piperazin-1-yl)-propoxy]-quinazolin-4-yl}-piperidine-1-carboxylic acid (4-morpholin-4-yl-phenyl)-amide] yielded an IC50 of 0.063 µM.

The compound `CS(=O)(=O)N1CC(Oc2ccc3c(C4CCN(C(=O)Nc5ccc(N6CCCC6)cc5)CC4)ncnc3c2)C1` [Example 171, 4-[7-(1-Methanesulfonyl-azetidin-3-yloxy)-quinazolin-4-yl]-piperidine-1-carboxylic acid (4-pyrrolidin-1-yl-phenyl)-amide] returned a half-maximal inhibitory concentration (IC50) of 0.13 µM.

For the compound `CN1CCN(CCOc2ccc3c(C4CCN(C(=O)Nc5ccc(N6CCCC6)cc5)CC4)ncnc3c2)CC1` [Example 157, 4-{7-[2-(4-Methyl-piperazin-1-yl)-ethoxy]-quinazolin-4-yl}-piperidine-1-carboxylic acid (4-pyrrolidin-1-yl-phenyl)-amide], the concentration for half-maximal inhibition (IC50) was found to be 0.0005 µM. This IC50 lies about 260-fold lower than the previous one.

In the case of `CS(=O)(=O)CCNc1ccc2c(C3CCN(C(=O)Nc4ccc(N5CCOCC5)cc4)CC3)ncnc2c1` [Example 146, 4-[7-(2-Methanesulfonyl-ethylamino)-quinazolin-4-yl]-piperidine-1-carboxylic acid (4-morpholin-4-yl-phenyl)-amide], the 50% inhibitory concentration (IC50) amounted to 0.274 µM.

`CN(C)[C@@H]1CCN(c2ccc3c(C4CCN(C(=O)Nc5ccc(N6CCOCC6)cc5)CC4)ncnc3c2)C1` [Example 150, (R)-4-[7-(3-Dimethylamino-pyrrolidin-1-yl)-quinazolin-4-yl]-piperidine-1-carboxylic acid (4-morpholin-4-yl-phenyl)-amide] had an IC50 of 0.014 µM.

Consider `CS(=O)(=O)N1CCN(c2ccc3c(C4CCN(C(=O)Nc5ccc(N6CCOCC6)cc5)CC4)ncnc3c2)CC1` [Example 142, 4-[7-(4-Methanesulfonyl-piperazin-1-yl)-quinazolin-4-yl]-piperidine-1-carboxylic acid (4-morpholin-4-yl-phenyl)-amide], for which the 50% inhibitory concentration (IC50) was 0.006 µM.

Compound `O=C(Nc1ccc(N2CCCC2)cc1)N1CCC(c2ncnc3cc(N4CCOC4=O)ccc23)CC1` [Example 176, 4-[7-(2-Oxo-oxazolidin-3-yl)-quinazolin-4-yl]-piperidine-1-carboxylic acid (4-pyrrolidin-1-yl-phenyl)-amide] displayed an IC50 of 0.102 µM.

With `O=C(Nc1ccc(N2CCOCC2)cc1)N1CCC(c2ncnc3cc(OCCN4CCOC4=O)ccc23)CC1` [Example 148, 4-{7-[2-(2-Oxo-oxazolidin-3-yl)-ethoxy]-quinazolin-4-yl}-piperidine-1-carboxylic acid (4-morpholin-4-yl-phenyl)-amide], the IC50 came out at 0.03 µM.

Take `O=C(Nc1ccc(N2CCCC2)cc1)N1CCC(c2ncnc3cc(N4CCOCC4)ccc23)CC1` [Compound 181, 4-(7-Morpholin-4-yl-quinazolin-4-yl)-piperidine-1-carboxylic acid (4-pyrrolidin-1-yl-phenyl)-amide]: the half-inhibitory concentration (IC50) stood at 0.01 µM.

`CN1CCN(c2ccc3c(C4CCN(C(=O)Nc5ccc(N6CCCC6)nc5)CC4)ncnc3c2)CC1` [Example 160, 4-[7-(4-Methyl-piperazin-1-yl)-quinazolin-4-yl]-piperidine-1-carboxylic acid (6-pyrrolidin-1-yl-pyridin-3-yl)-amide] gave a 50% inhibitory concentration (IC50) of 0.014 µM.

As for `O=C(Nc1ccc(N2CCOCC2)cc1)N1CCC(c2ncnc3cc(N4CCC[C@@H]4CO)ccc23)CC1` [Example 132, (R)-4-[7-(2-Hydroxymethyl-pyrrolidin-1-yl)-quinazolin-4-yl]-piperidine-1-carboxylic acid (4-morpholin-4-yl-phenyl)-amide], half-maximal inhibition (IC50) was put at 0.067 µM.

In turn, `CC(=O)N1CCN(c2ccc3c(C4CCN(C(=O)Nc5ccc(N6CCCC6)cc5)CC4)ncnc3c2)CC1` [Example 166, 4-[7-(4-Acetyl-piperazin-1-yl)-quinazolin-4-yl]-piperidine-1-carboxylic acid (4-pyrrolidin-1-yl-phenyl)-amide] displayed an IC50 of 0.009 µM.

In turn, `COc1cc2ncnc(C3CCN(C(=O)Nc4ccc(C5CCCCC5)cc4)CC3)c2cc1OC` [Example 21, 4-(6,7-Dimethoxy-quinazolin-4-yl)-piperidine-1-carboxylic acid (4-cyclohexyl-phenyl)-amide] returned a 50% inhibitory concentration (IC50) of 0.007 µM.

On to `O=C(Nc1ccc(N2CCCC2)cc1)N1CCC(c2ncnc3cc(OCCCN4CCC[C@H]4CO)ccc23)CC1` [Example 161, (S)-4-{7-[3-(2-Hydroxymethyl-pyrrolidin-1-yl)-propoxy]-quinazolin-4-yl}-piperidine-1-carboxylic acid (4-pyrrolidin-1-yl-phenyl)-amide], for which the midpoint of inhibition, the IC50, lay at 0.001 µM.

As to `CN(C)C(=O)N1CCN(CCCOc2ccc3c(C4CCN(C(=O)Nc5ccc(N6CCCC6)cc5)CC4)ncnc3c2)CC1` [Example 165, 4-(3-{4-[1-(4-Pyrrolidin-1-yl-phenylcarbamoyl)-piperidin-4-yl]-quinazolin-7-yloxy}-propyl)-piperazine-1-carboxylic acid dimethylamide], the IC50 came to 0.015 µM.

`O=C(CO)N1CCN(c2ccc3c(C4CCN(C(=O)Nc5ccc(N6CCCC6)cc5)CC4)ncnc3c2)CC1` [Compound 201, 4-{7-[4-(2-Hydroxy-acetyl)-piperazin-1-yl]-quinazolin-7-yl}-piperidine-1-carboxylic acid (4-pyrrolidin-1-yl-phenyl)-amide] registered a concentration for half-maximal inhibition (IC50) of 0.017 µM.

Take `CC(C)Oc1ccc(NC(=O)N2CCC(c3ncnc4ccc(C#CCN5CCOCC5)cc34)CC2)cc1` [Example 15, 4-[6-(3-Morpholin-4-yl-prop-1-ynyl)-quinazolin-4-yl]-piperidine-1-carboxylic acid (4-isopropoxy-phenyl)-amide]: inhibition was half-maximal at 0.046 µM (IC50).

For the compound `O=C(Nc1ccc(N2CCOCC2)cc1)N1CCC(c2ncnc3cc(N4CCOCC4)ccc23)CC1` [Example 145, 4-(7-Morpholin-4-yl-quinazolin-4-yl)-piperidine-1-carboxylic acid (4-morpholin-4-yl-phenyl)-amide], half-maximal inhibition (IC50) was put at 0.065 µM.

In turn, `CC(=O)N1CCC[C@H]1COc1ccc2c(C3CCN(C(=O)Nc4ccc(N5CCCC5)cc4)CC3)ncnc2c1` [Example 162, (S)-4-[7-(1-Acetyl-pyrrolidin-2-ylmethoxy)-quinazolin-4-yl]-piperidine-1-carboxylic acid (4-pyrrolidin-1-yl-phenyl)-amide] yielded an IC50 of 0.032 µM.

The compound `CN(C)C(=O)N1CCN(c2ccc3c(C4CCN(C(=O)Nc5ccc(N6CCOCC6)cc5)CC4)ncnc3c2)CC1` [Example 143, 4-{4-[1-(4-Morpholin-4-yl-phenylcarbamoyl)-piperidin-4-yl]-quinazolin-7-yl}-piperazine-1-carboxylic acid dimethylamide] came in with an IC50 of 0.004 µM.

`O=C(Nc1ccc(N2CCCC2)cc1)N1CCC(c2ncnc3cc(O[C@@H]4CCOC4)ccc23)CC1` [Compound 191, (R)-4-[7-(Tetrahydro-furan-3-yloxy)-quinazolin-4-yl]-piperidine-1-carboxylic acid (4-pyrrolidin-1-yl-phenyl)-amide] returned an IC50 of 0.216 µM. Compared with the last compound, the IC50 is about 54-fold higher.

In the case of `COc1cc2ncnc(C3CCN(C(=O)Nc4ccc(CO)cc4)CC3)c2cc1OC` [Example 22, 4-(6,7-Dimethoxy-quinazolin-4-yl)-piperidine-1-carboxylic acid (4-hydroxymethyl-phenyl)-amide], the IC50 is 4.4 µM.

As for `CS(=O)(=O)N1CCN(CCCOc2ccc3c(C4CCN(C(=O)Nc5ccc(N6CCCC6)cc5)CC4)ncnc3c2)CC1` [Example 164, 4-{7-[3-(4-Methanesulfonyl-piperazin-1-yl)-propoxy]-quinazolin-4-yl}-piperidine-1-carboxylic acid (4-pyrrolidin-1-yl-phenyl)-amide], the concentration for half-maximal inhibition (IC50) was found to be 0.025 µM.

The compound `O=C(Nc1ccc(N2CCCC2)cc1)N1CCC(c2ncnc3cc(OCCO)ccc23)CC1` [Example 169, 4-[7-(2-Hydroxy-ethoxy)-quinazolin-4-yl]-piperidine-1-carboxylic acid (4-pyrrolidin-1-yl-phenyl)-amide] returned a half-maximal inhibitory concentration (IC50) of 0.032 µM.

Turning to `O=C(Nc1ccc(N2CCCC2)cc1)N1CCC(c2ncnc3cc(OCC4CCOCC4)ccc23)CC1` [Compound 188, 4-[7-(Tetrahydro-pyran-4-ylmethoxy)-quinazolin-4-yl]-piperidine-1-carboxylic acid (4-pyrrolidin-1-yl-phenyl)-amide], the IC50 worked out at 0.386 µM.

The compound `O=C(Nc1ccc(N2CCCC2)cc1)N1CCC(c2ncnc3cc(NCCO)ccc23)CC1` [Example 175, 4-[7-(2-Hydroxy-ethylamino)-quinazolin-4-yl]-piperidine-1-carboxylic acid (4-pyrrolidin-1-yl-phenyl)-amide] came in with a 50% inhibitory concentration (IC50) of 0.001 µM.

Turning to `O=C(Nc1ccc(N2CCCC2)cc1)N1CCC(c2ncnc3cc(N4CCN(c5ccncc5)CC4)ccc23)CC1` [Compound 194, 4-[7-(4-Pyridin-4-yl-piperazin-1-yl)-quinazolin-4-yl]-piperidine-1-carboxylic acid (4-pyrrolidin-1-yl-phenyl)-amide], the IC50 was determined as 0.02 µM.

Compound `COc1cc2ncnc(C3CCN(C(=O)Nc4ccc(OC(C)C)cc4)CC3)c2cc1OC` [Example 1, 4-(6,7-Dimethoxy-quinazolin-4-yl)-piperidine-1-carboxylic acid (4-isopropoxy-phenyl)-amide hydrochloride] showed an IC50 of 0.046 µM. This IC50 is about 2.3-fold higher than that of the compound before.

Take `CC(=O)N1CC(Oc2ccc3c(C4CCN(C(=O)Nc5ccc(N6CCCC6)cc5)CC4)ncnc3c2)C1` [Example 170, 4-[7-(1-Acetyl-azetidin-3-yloxy)-quinazolin-4-yl]-piperidine-1-carboxylic acid (4-pyrrolidin-1-yl-phenyl)-amide]: the IC50 came to 0.29 µM. Against the preceding compound, the IC50 is about 6.3-fold higher.
